Patent US9951001B2 (Acorda Therapeutics, Inc., priority 2008, dated 2018)
≈ marks a conversion by molar mass, not a printed value. Counter-ions that a name gives are not always drawn. Like-named read-outs stand apart in the source and are kept apart here.

Columns and labels:
physchem = details: for solubility: water, Solubility in water at room temperature
Procedure: To a stirred colorless solution of (S)-4-acetamidophenyl 2-(tert-butoxycarbonylamino)-4-(methylthio)butanoate (0.5 g, 1.3 mmol) in dioxane (10 mL) was added 40 mL of HCl in dioxane (4M).

C57BL6 mice = test: Acute acetaminophen-induced hepatotoxicity in mice (plasma ALT and AST)
Procedure: Hepatotoxicity was evaluated by measuring standard plasma enzymatic markers (Alanine transaminase (ALT) and Aspartate transaminase (AST)) of liver damage.

[1] = cited from earlier work

Compound	melting point [°C]	solubility (physchem) [mg/mL]	further results
CC(=O)Nc1ccc(OC(=O)C(N)CSSCC(N)C(=O)O)cc1.Cl.Cl (centres unmarked)	230 to 237	–	–
CC(=O)Nc1ccc(OC(=O)C(CSSCC(NC(C)=O)C(=O)O)NC(C)=O)cc1 (centres unmarked) [Example 2, 2-acetamido-3-((2-acetamido-3-(4-acetamidophenoxy)-3-oxopropyl)disulfanyl)propanoic acid]	95 to 99	–	–
CC(=O)Nc1ccc(OC(=O)C(N)CSSCC(NC(C)=O)C(=O)O)cc1 (centres unmarked) [II-D, 2-acetamido-3-((3-(4-acetamidophenoxy)-2-amino-3-oxopropyl)disulfanyl)propanoic acid]	–	47 (≈ 113 mM)	–
CC(=O)Nc1ccc(OC(=O)C(N)CSSCC(NC(C)=O)C(=O)O)cc1 (centres unmarked) [Compound II-D sodium salt, 2-acetamido-3-((3-(4-acetamidophenoxy)-2-amino-3-oxopropyl)disulfanyl)propanoic acid]	–	–	Solubility in water at room temperature (physchem): 52 mg/mL
CC(=O)Nc1ccc(O)cc1 [Acetaminophen, N-(4-hydroxyphenyl)acetamide]	–	~14.3 (≈ 94.6 mM)	Treated mice with elevated ALT levels (C57BL6 mice; mouse, in vivo): 83%; Treated mice with increased AST levels (C57BL6 mice; mouse, in vivo): all
CSCC[C@H](N)C(=O)O [l-methionine]	–	–	AST and ALT increases in acetaminophen-treated animals (C57BL6 mice; co-administration of equimolar doses of l-methionine and acetaminophen): significantly reduced; Serum AST and ALT levels (C57BL6 mice; oral l-methionine alone (167 mg/kg)): did not affect
CSCC[C@H](N)C(=O)Oc1ccc(NC(C)=O)cc1 (as salt: HCl) [Compound (II-A), (S)-4-acetamidophenyl 2-amino-4-(methylthio)butanoate]	225 to 228	–	–
CSCC[C@H](N)C(=O)Oc1ccc(NC(C)=O)cc1 [Compound (II-A), (S)-4-acetamidophenyl 2-amino-4-(methylthio)butanoate]	–	500 (≈ 1770 mM)	–
CC(=O)Nc1ccc(OC(=O)C(N)CSSCC(N)C(=O)Oc2ccc(NC(C)=O)cc2)cc1 (centres unmarked) (as salt: trifluoroacetate) [Example 4, bis(4-acetamidophenyl)3,3′-disulfanediylbis(2-aminopropanoate)di(trifluoroacetate)]	> 300	–	–
O=C1N[C@H](C(=O)O)CS1 [L-2-oxothiazolidine-4-carboxylate]	–	–	GSH tissue levels ([1]; administered 30 minutes post-acetaminophen administration): 6.1 μmol/g of tissue; GSH tissue levels ([1]; administered 120 minutes post-acetaminophen administration): 5.3 μmol/g of tissue
